In US20090264426A1, “Bicyclic aromatic substituted pyridone derivative” (priority 2005, published 2009):

target: T1, human MCH-1R (Homo sapiens, UniProt Q99705); assay: MCH binding inhibition test; settings: 50% inhibition of specific [125I]MCH (50 pM) binding; membranes of MCH-1R expressing CHO-K1 cells; 25° C., 1 hour, pH 7.4
T1 construct: expressed in transfected cells; host or cells: CHO-K1
Method: A human MCH-1R encoding cDNA sequence [FEBS Letters, Vol. 398, 253 (1996); Biochimica et Biophisica Acta, Vol. 1401, 216 (1998)] was cloned to a plasmid vector pEF/myc/cyto (Invitrogen Corporation). The obtained expression vector was transfected to host cells CHO-K1 (American Type Culture Collection) using Lipofectamine Plus Reagent (Life Technology Inc.) to provide MCH-1R expression cells.
Membrane samples prepared from the MCH-1R expression cells were incubated with each test compound and 50 pM of [^125I]MCH (NEN Co.), in an assay buffer (50 mM Tris buffer comprising 10 mM magnesium chloride, 2 mM ethylenediamine tetraacetate, 0.01% bacitracin and 0.2% bovine serum albumin; pH 7.4) at 25° C. for an hour, followed by filtration through a glass filter GF/C (Wattman Co.). After washing the glass filter with 50 mM Tris buffer (pH 7.4) comprising 10 mM magnesium chloride, 2 mM ethylenediamine tetraacetate and 0.04% Tween-20, the radioactive activity on the glass filter was measured. The non-specific binding was measured in the presence of 1 μM human MCH and 50% inhibition concentration (IC50 value) of each test compound to the specific [^125I]MCH binding was determined.

T1 sequence (Q99705 whole entry): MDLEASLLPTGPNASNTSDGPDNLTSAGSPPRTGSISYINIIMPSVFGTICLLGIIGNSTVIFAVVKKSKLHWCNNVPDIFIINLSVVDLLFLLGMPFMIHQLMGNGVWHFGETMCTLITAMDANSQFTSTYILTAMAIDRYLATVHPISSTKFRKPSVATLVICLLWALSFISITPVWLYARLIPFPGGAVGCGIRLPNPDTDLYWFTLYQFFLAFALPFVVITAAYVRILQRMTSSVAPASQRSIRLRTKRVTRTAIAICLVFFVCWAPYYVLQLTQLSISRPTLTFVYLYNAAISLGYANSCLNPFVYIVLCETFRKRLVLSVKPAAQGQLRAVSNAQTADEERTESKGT

SMILES | IC50
O=c1cc(OCc2ccc(Cl)cn2)ccn1-c1ccc2nc(CN3CCC3)ccc2c1 [Example 30, 1-[2-(Azetidin-1-ylmethyl)quinolin-6-yl]-4-[(5-chloropyridin-2-yl)methoxy]pyridin-2(1H)-one] | 5.9 nM
O=c1cc(OCc2ccccc2)ccn1-c1ccc2cn(CCN3CCCC3)nc2c1 [Example 27, 4-(Benzyloxy)-1-[2-(2-pyrrolidin-1-ylethyl)-2H-indazol-6-yl]pyridin-2(1H)-one] | 80 nM
O=c1cc(OCc2ccccc2)ccn1-c1ccc2cc(OCCN3CCCC3)ccc2c1 [Example 38, 4-(Benzyloxy)-1-[6-(2-pyrrolidin-1-ylethoxy)-2-naphthyl]pyridin-2(1H)-one] | 3.1 nM
CCCNCCc1ccc2cc(-n3ccc(OCc4ccccc4)cc3=O)ccc2n1 [Example 76, 4-(Benzyloxy)-1-{2-[2-(propylamino)ethyl]quinolin-6-yl}pyridin-2(1H)-one] | 2.9 nM
O=c1cc(OCc2ccc(F)cc2)ccn1-c1ccc2oc(CN3CCCCCC3)cc2c1 [Example 89, 1-[2-(Azepan-1-ylmethyl)-1-benzofuran-5-yl]-4-[(4-fluorobenzyl)oxy]pyridin-2(1H)-one] | 19 nM
CNCc1ccc2cc(-n3ccc(OCc4ccc(Cl)cc4)cc3=O)ccc2n1 [Example 35, 4-[(4-Chlorobenzyl)oxy]-1-{2-[(methylamino)methyl]quinolin-6-yl}pyridin-2(1H)-one] | 2.2 nM
O=c1cc(OCc2ccccc2)ccn1-c1ccc2cc(CN3CCC3)ccc2n1 [Example 28, 1-[6-(Azetidin-1-ylmethyl)quinolin-2-yl]-4-(benzyloxy)pyridin-2(1H)-one] | 7.6 nM
Cc1c(CCCN2CCCC2)nc2ccc(-n3ccc(OCc4ccc(Cl)cn4)cc3=O)cn12 [Example 63, 4-[(5-Chloropyridin-2-yl)methoxy]-1-[3-methyl-2-(3-pyrrolidin-1-ylpropyl)imidazo[1,2-a]pyridin-6-yl]pyridin-2(1H)-one] | 22 nM
Cn1c(CCCN2CCCC2)nc2ccc(-n3ccc(OCc4ccc(Cl)cc4)cc3=O)cc21 [Example 65, 4-[(4-Chlorobenzyl)oxy]-1-[1-methyl-2-(3-pyrrolidin-1-ylpropyl)-1H-benzimidazol-6-yl]pyridin-2(1H)-one] | 5.1 nM
O=c1cc(OCc2ccc(F)cc2)ccn1-c1ccc2cc(CN3CCC3)ncc2c1 [Example 99, 1-[3-(Azetidin-1-ylmethyl)isoquinolin-7-yl]-4-[(4-fluorobenzyl)oxy]pyridin-2(1H)-one] | 6 nM
CCNCc1ccc2cc(-n3ccc(OCc4ccc(F)cc4)cc3=O)ccc2n1 [Example 23, 1-{2-[(Ethylamino)methyl]quinolin-6-yl}-4-[(4-fluorobenzyl)oxy]pyridin-2(1H)-one] | 6.2 nM
O=c1cc(OCc2ccc(F)cc2)ccn1-c1ccc2nc(CN3CCC3)ccc2n1 [Example 95, 1-[6-(Azetidin-1-ylmethyl)-1,5-naphthyridin-2-yl]-4-[(4-fluorobenzyl)oxy]pyridin-2(1H)-one] | 23 nM

Further lines, results first:

IC50 | SMILES
9.6 nM | O=c1cc(OCc2ccc(F)cc2)ccn1-c1ccc2cc(CN3CCC3)cnc2c1 [Example 98, 1-[3-(Azetidin-1-ylmethyl)quinolin-7-yl]-4-[(4-fluorobenzyl)oxy]pyridin-2(1H)-one]
11 nM | Cn1c(CN2CCCC2)cc2ccc(-n3ccc(OCc4ccc(Cl)cn4)cc3=O)cc21 [Example 70, 4-[(5-Chloropyridin-2-yl)methoxy]-1-[1-methyl-2-(pyrrolidin-1-ylmethyl)-1H-indol-6-yl]pyridin-2(1H)-one]
5.2 nM | CCCNCc1ccc2cc(-n3ccc(OCc4ccc(Cl)cn4)cc3=O)ccc2n1 [Example 40, 4-[(5-Chloropyridin-2-yl)methoxy]-1-{2-[(propylamino)methyl]quinolin-6-yl}pyridin-2(1H)-one]
7.8 nM | O=c1cc(OCc2ccc(Cl)cn2)ccn1-c1ccc2nc(OCCCN3CCCC3)ccc2c1 [Example 20, 4-[(5-Chloropyridin-2-yl)methoxy]-1-[2-(3-pyrrolidin-1-ylpropoxy)quinolin-6-yl]pyridin-2(1H)-one]
9.8 nM | CC(C)N(C)c1nc2ccc(-n3ccc(OCCOc4ccc(F)cc4)cc3=O)cc2[nH]1 [Example 90, 4-[2-(4-fluorophenoxy)ethoxy]-1-{2-[isopropyl(methyl)amino]-1H-benzimidazol-6-yl}pyridin-2(1H)-one]
6.4 nM | O=c1cc(OCc2ccc(Cl)cn2)ccn1-c1ccc2nc(OCCN3CCCC3)ccc2c1 [Example 8, 4-[(5-Chloropyridin-2-yl)methoxy]-1-[2-(2-pyrrolidin-1-ylethoxy)quinolin-6-yl]pyridin-2(1H)-one]
10.1 nM | O=c1cc(/C=C/c2ccc(Cl)cn2)ccn1-c1ccc2nc(OCCN3CCCC3)cnc2c1 [Example 57, 4-[(E)-2-(5-chloropyridin-2-yl)vinyl]-1-[2-(2-pyrrolidin-1-ylethoxy)quinoxalin-6-yl]pyridin-2(1H)-one]
10.5 nM | O=c1cc(OCc2ccc(F)cc2)ccn1OCc1ccc2nc(CN3CCCC3)ccc2c1 [Example 94, 4-[(4-Fluorobenzyl)oxy]-1-{[2-(pyrrolidin-1-ylmethyl)quinolin-6-yl]methoxy}pyridin-2(1H)-one]
